From patent publication US20110086889A1, “TETRAZOLE COMPOUNDS AS OREXIN RECEPTOR ANTAGONISTS” (priority 2009, published 2011)

Legend:
[1] = cited from earlier work
[2] = rat; cited from earlier work
[3] = rat model; cited from earlier work
[4] = molecular target: T1, human orexin-1 receptor (Homo sapiens, UniProt O43613); assay: FLIPR calcium assay, orexin receptor antagonistic activity, CHO cells expressing the human orexin-1 receptor; assay type: cell-based; conditions: 3 nM orexin-A as agonist, some values geometric mean of n = 2 or 3, read-out: OX1 IC50
T1 construct: expressed in transfected cells; host or cells: Chinese hamster ovary (CHO) cells, grown under G418 selection
T1 sequence (O43613 1-425): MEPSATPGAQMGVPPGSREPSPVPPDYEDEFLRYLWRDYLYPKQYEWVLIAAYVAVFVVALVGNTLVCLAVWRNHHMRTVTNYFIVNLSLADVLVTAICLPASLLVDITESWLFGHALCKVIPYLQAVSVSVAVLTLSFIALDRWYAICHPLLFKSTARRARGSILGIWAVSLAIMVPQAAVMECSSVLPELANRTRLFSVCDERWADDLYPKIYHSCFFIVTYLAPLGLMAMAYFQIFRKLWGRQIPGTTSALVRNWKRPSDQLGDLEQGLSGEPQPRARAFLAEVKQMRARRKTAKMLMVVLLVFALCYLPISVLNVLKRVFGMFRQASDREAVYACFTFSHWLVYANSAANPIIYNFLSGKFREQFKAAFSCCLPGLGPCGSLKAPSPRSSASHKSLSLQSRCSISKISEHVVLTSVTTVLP
Procedure: (§1) The orexin receptor antagonistic activity of the compounds of formula (I) is determined in accordance with the following experimental method.
(§2) Chinese hamster ovary (CHO) cells expressing the human orexin-1 receptor and the human orexin-2 receptor, respectively, are grown in culture medium (Ham F-12 with L-Glutamine) containing 300 μg/ml G418, 100 U/ml penicillin, 100 μg/ml streptomycin and 10% heat inactivated fetal calf serum (FCS). The cells are seeded at 20,000 cells/well into 384-well black clear bottom sterile plates (Greiner). The seeded plates are incubated overnight at 37° C. in 5% CO2. Human orexin-A as an agonist is prepared as 1 mM stock solution in MeOH:water (1:1), diluted in HBSS containing 0.1% bovine serum albumin (BSA), NaHCO3: 0.375 g/l and 20 mM HEPES for use in the assay at a final concentration of 3 nM.
(§3) Antagonists are prepared as 10 mM stock solution in DMSO, then diluted in 384-well plates using DMSO followed by a transfer of the dilutions into in HBSS containing 0.1% bovine serum albumin (BSA), NaHCO3: 0.375 g/l and 20 mM HEPES. On the day of the assay, 50 μl of staining buffer (HBSS containing 1% FCS, 20 mM HEPES, NaHCO3: 0.375 g/l, 5 mM probenecid (Sigma) and 3 μM of the fluorescent calcium indicator fluo-4 AM (1 mM stock solution in DMSO, containing 10% pluronic) is added to each well. The 384-well cell-plates are incubated for 50 min at 37° C. in 5% CO2 followed by equilibration at r.t. for 30-120 min before measurement.
(§4) Within the Fluorescent Imaging Plate Reader (FLIPR Tetra, Molecular Devices), antagonists are added to the plate in a volume of 10 μl/well, incubated for 10 min and finally 10 μl/well of agonist is added. Fluorescence is measured for each well at 1 second intervals, and the height of each fluorescence peak is compared to the height of the fluorescence peak induced by 3 nM orexin-A with vehicle in place of antagonist. For each antagonist, the IC50 value (the concentration of compound needed to inhibit 50% of the agonistic response) is determined and may be normalized using the obtained IC50 value of a on-plate reference compound. Optimized conditions were achieved by adjustment of pipetting speed and cell splitting regime. The calculated IC50 values of the compounds may fluctuate depending on the daily cellular assay performance. Fluctuations of this kind are known to those skilled in the art.

[5] = molecular target: T2, human orexin-2 receptor (Homo sapiens, UniProt O43614); assay: FLIPR calcium assay, orexin receptor antagonistic activity, CHO cells expressing the human orexin-2 receptor; assay type: cell-based; conditions: 3 nM orexin-A as agonist, some values geometric mean of n = 2 or 3, read-out: OX2 IC50
T2 construct: expressed in transfected cells; host or cells: Chinese hamster ovary (CHO) cells, grown under G418 selection
T2 sequence (O43614 1-444): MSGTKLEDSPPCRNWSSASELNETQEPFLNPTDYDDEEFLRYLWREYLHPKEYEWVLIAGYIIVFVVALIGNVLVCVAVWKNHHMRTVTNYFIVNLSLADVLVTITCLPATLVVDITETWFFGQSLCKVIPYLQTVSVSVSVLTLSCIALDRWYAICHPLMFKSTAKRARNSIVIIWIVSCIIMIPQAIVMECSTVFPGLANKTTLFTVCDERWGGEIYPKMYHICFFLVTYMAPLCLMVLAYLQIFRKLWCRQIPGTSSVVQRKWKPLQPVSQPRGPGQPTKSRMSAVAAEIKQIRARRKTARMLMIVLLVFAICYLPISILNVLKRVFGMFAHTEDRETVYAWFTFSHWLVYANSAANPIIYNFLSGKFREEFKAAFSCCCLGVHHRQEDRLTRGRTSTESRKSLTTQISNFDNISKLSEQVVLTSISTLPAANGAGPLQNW
Procedure: as §1, §2, §3, §4

Row | IC50 [4] [nM] | IC50 [5] [nM] | SMILES | activity in a rat model of post-traumatic stress disorder [1] | alertness, characterized by active wake and locomotion [2] | time spent in both REM and NREM sleep [2] | memory function [3]
1 | 1810 | 146 | Cc1cccc(-n2nnnc2SCC(=O)Nc2ccnn2CCCc2ccc(OC(F)(F)F)c(F)c2)c1C [Example 85, 2-[1-(2,3-Dimethyl-phenyl)-1H-tetrazol-5-ylsulfanyl]-N-{2-[3-(3-fluoro-4-trifluoromethoxy-phenyl)-propyl]-2H-pyrazol-3-yl}-acetamide] |  |  |  | 
2 | 44 | 47 | Cc1ccc(C)c(-n2nnnc2SCC(=O)Nc2ccnn2CCc2ccccc2)c1 [Example 89, 2-[1-(2,5-Dimethyl-phenyl)-1H-tetrazol-5-ylsulfanyl]-N-(2-phenethyl-2H-pyrazol-3-yl)-acetamide] |  |  |  | 
3 | 25 | 41 | COc1ccc(Cn2nccc2NC(=O)CCc2nnnn2-c2cccc3ccccc23)cc1 [Example 115, N-[2-(4-Methoxy-benzyl)-2H-pyrazol-3-yl]-3-(1-naphthalen-1-yl-1H-tetrazol-5-yl)-propionamide] |  |  |  | 
4 | 796 | 530 | COc1ccc(-n2nccc2NC(=O)CCc2nnnn2-c2c(C)cc(C)cc2C)cc1 [Example 139, N-[2-(4-Methoxy-phenyl)-2H-pyrazol-3-yl]-3-[1-(2,4,6-trimethyl-phenyl)-1H-tetrazol-5-yl]-propionamide] |  |  |  | 
5 | 85 | 19 | Cc1cccc(-n2nnnc2SCC(=O)Nc2ccnn2-c2ccc(Oc3ccccc3)cc2)c1C [Example 141, 2-[1-(2,3-Dimethyl-phenyl)-1H-tetrazol-5-ylsulfanyl]-N-[2-(4-phenoxy-phenyl)-2H-pyrazol-3-yl]-acetamide] |  |  |  | 
6 | 47 | 8300 | COc1ccc(-n2nccc2NC(=O)CSc2nnnn2-c2cccc(C)c2C)cn1 [Example 147, 2-[1-(2,3-Dimethyl-phenyl)-1H-tetrazol-5-ylsulfanyl]-N-[2-(6-methoxy-pyridin-3-yl)-2H-pyrazol-3-yl]-acetamide] |  |  |  | 
7 | 63 | 32 | COc1ccc(-n2nccc2NC(=O)CSc2nnnn2-c2c(Cl)cccc2Cl)cc1 [Example 152, 2-[1-(2,6-Dichloro-phenyl)-1H-tetrazol-5-ylsulfanyl]-N-[2-(4-methoxy-phenyl)-2H-pyrazol-3-yl]-acetamide] |  |  |  | 
8 | 7250 | 654 | Cc1cc(NC(=O)CSc2nnnn2-c2cccc(C)c2C)n(-c2ccccc2)n1 [Example 154, 2-[1-(2,3-Dimethyl-phenyl)-1H-tetrazol-5-ylsulfanyl]-N-(5-methyl-2-phenyl-2H-pyrazol-3-yl)-acetamide] |  |  |  | 

The next lines start with the compound.

Row | SMILES | IC50 [4] [nM] | IC50 [5] [nM] | activity in a rat model of post-traumatic stress disorder [1] | alertness, characterized by active wake and locomotion [2] | time spent in both REM and NREM sleep [2] | memory function [3]
9 | CNC(=O)[C@@H](c1ccccc1)N1CCc2cc(OC)c(OC)cc2[C@@H]1CCc1ccc(C(F)(F)F)cc1 [(2R)-2-{(1S)-6,7-dimethoxy-1-[2-(4-trifluoromethyl-phenyl)-ethyl]-3,4-dihydro-1H-isoquinolin-2-yl}-N-methyl-2-phenyl-acetamide] |  |  | active | decrease alertness | dose-dependently increase | enhance memory function
10 | COc1ccc(Cn2nccc2NC(=O)CSc2nnnn2-c2cccc(C)c2C)cc1 [Example 1, 2-[1-(2,3-Dimethyl-phenyl)-1H-tetrazol-5-ylsulfanyl]-N-[2-(4-methoxy-benzyl)-2H-pyrazol-3-yl]-acetamide] | 32 | 5 |  |  |  | 
11 | COc1ccc(Cn2nccc2NC(=O)CSc2nnnn2-c2cccc(C)c2C)cc1C [Example 2, 2-[1-(2,3-Dimethyl-phenyl)-1H-tetrazol-5-ylsulfanyl]-N-[2-(4-methoxy-3-methyl-benzyl)-2H-pyrazol-3-yl]-acetamide] | 42 | 25 |  |  |  | 
12 | COc1ccc(Cn2nccc2NC(=O)CSc2nnnn2-c2cccc(C)c2C)cc1OC [Example 10, N-[2-(3,4-Dimethoxy-benzyl)-2H-pyrazol-3-yl]-2-[1-(2,3-dimethyl-phenyl)-1H-tetrazol-5-ylsulfanyl]-acetamide] | 61 | 89 |  |  |  | 
13 | Cc1ccccc1Cn1nccc1NC(=O)CSc1nnnn1-c1cccc(C)c1C [Example 22, 2-[1-(2,3-Dimethyl-phenyl)-1H-tetrazol-5-ylsulfanyl]-N-[2-(2-methyl-benzyl)-2H-pyrazol-3-yl]-acetamide] | 48 | 115 |  |  |  | 
14 | COc1ccc(Cn2nccc2NC(=O)CSc2nnnn2-c2cc(C)ccc2C)cc1 [Example 46, 2-[1-(2,5-Dimethyl-phenyl)-1H-tetrazol-5-ylsulfanyl]-N-[2-(4-methoxy-benzyl)-2H-pyrazol-3-yl]-acetamide] | 11 | 6 |  |  |  | 
15 | COc1ccc(-n2nnnc2SCC(=O)Nc2ccnn2Cc2ccc3c(c2)OCO3)c(OC)c1 [Example 62, N-(2-Benzo[1,3]dioxol-5-ylmethyl-2H-pyrazol-3-yl)-2-[1-(2,4-dimethoxy-phenyl)-1H-tetrazol-5-ylsulfanyl]-acetamide] | 3440 | 1800 |  |  |  | 
16 | Cc1cccc(-n2nnnc2SCC(=O)Nc2ccnn2CC2CC2)c1C [Example 76, N-(2-Cyclopropylmethyl-2H-pyrazol-3-yl)-2-[1-(2,3-dimethyl-phenyl)-1H-tetrazol-5-ylsulfanyl]-acetamide] | 363 | 165 |  |  |  | 
17 | CCC(C)Cn1nccc1NC(=O)CSc1nnnn1-c1cccc(C)c1C (stereo not drawn) [Example 77, 2-[1-(2,3-Dimethyl-phenyl)-1H-tetrazol-5-ylsulfanyl]-N-[2-(2-methyl-butyl)-2H-pyrazol-3-yl]-acetamide] | 295 | 613 |  |  |  | 
